Source: US20140243374A1, “Novel Sulfonamides” (The Brigham and Women's Hospital, Inc., priority 2011, published 2014)
pIC50: −log10 of the molar value. Where “and” joins values, the source holds several entries; their conditions need not be identical. Identical values can stand only once. Counter-ions that a name gives are not always drawn.

Columns and labels:
[1] = biological target: T1, γ-secretase (cleavage of APP, Aβ42) (Homo sapiens, UniProt P49768); test: Aβ (1-42) cellular assay (Aβ ELISA, HEK AP-GL-T1 6 cells); format: cell-based; details: for pIC50: cellular Aβ42 ELISA, 24 h compound treatment; for inhibition at 1 µM: at 1 μM (concentration in brackets)
T1 construct: endogenous in cells; host or cells: HEK AP-GL-T16 luciferase reporter cells (tetracycline-induced APP substrate)
Protocol: Aβ (1-42) Cellular Assay.
The following assay was used to determine the extent to which the compounds of interest inhibit the cleavage of APP in vivo. AβELISA is a commercial fluorometric kit from Biosource (Invitrogen 89344). Luciferase reporter HEK AP-GL-T1 6 cells were plated at 50,000 cells/well in 96 well plates in DMEM media containing 10% tetracyclin free […], 250 μg/mL zeocin, 200 μg/mL hygromycin, and 5 μg/mL blasticidin. Compounds were added 24 h after plating and APP processing is induced simultaneously by addition of tetracycline. Following a 24 h compound treatment, […] of conditioned cell media is collected, mixed with ELISA diluent buffer containing 2 mM AEBSF and 12 mM o-phenanthroline, and immediately frozen at −80° C. For the ELISA, the samples were brought to room temperature and spun at 5000 rpm for 5 min. Samples ([…]) are incubated in the ELISA plate with […] detection antibody on a shaker at room temperature for 3 h. Wells were then washed 4 times with wash buffer and 100 mL of secondary antibody are added and incubated at room temperature for 30 min. Wells were again washed 4 times with wash buffer and 100 mL of fluorescent substrate solution are added. After 30 minutes of incubation, fluorescent signals are determine on a Gemini reader at ex 460 nm and em 560 nm. The amount of Aβ levels in each sample was determined from a standard curve generated by known concentrations of Aβ peptide run simultaneously with the samples.

[2] = biological target: T2, γ-secretase (Notch cleavage activity) (Homo sapiens, UniProt P49768); test: Cleaved Notch1 Sandwich ELISA (SUP-T1 cell line); format: cell-based; details: for pIC50: SUP-T1 cells, 16 h; for Notch Elisa/Aβ42: ratio Notch Elisa IC50 to Aβ42 IC50
T2 construct: endogenous in cells; host or cells: SUP-T1 cells
Protocol: Cleaved Notch1 Sandwich ELISA.
This assay was used to determine if the compounds of interest inhibit the Notch cleavage activity of γ-secretase in SUP-T1 cell line, which endogenously expresses a truncated Notch receptor fragment that is a viable gamma-secretase substrate. The base medium for this cell line is ATCC-formulated RPMI-1640 Medium with fetal bovine serum to a final concentration of 10%. Prepare dilution of SUP-T1 cells in complete growth medium to 1.0×10^6 cells/mL, seed 1.5 mL per well of each cell dilution into a 6-well plate. Collect cells treated with serial diluted compounds in DMSO after 16 h, then using equal amount of protein isolated from samples to measure Notch intracellular cleavage by PathScan® Sandwich ELISA Kit (Cell Signaling Tech 7194S).

| pIC50 [1] | pIC50 [2] | Notch Elisa/Aβ42 [2] | also measured | Molecule |
| --- | --- | --- | --- | --- |
| 8.14 |  |  |  | COC(=O)c1ccc(CN(C2CCCC(C(F)(F)F)C2)S(=O)(=O)c2ccc(Cl)cc2)cc1 (centres unmarked) [Example 49, Methyl 4-((4-chloro-N-(3-(trifluoromethyl)cyclohexyl)phenylsulfonamido)methyl)benzoate] |
| 6.85 |  |  |  | O=C(O)c1ccc(CN([C@@H]2CCCC[C@H]2F)S(=O)(=O)c2ccc(Cl)cc2)cc1 [Example 84, 4-((4-Chloro-N-((1R,2R)-2-fluorocyclohexyl)phenylsulfonamido)methyl)benzoic acid] |
| 7.98 | 5.96 | 106 |  | C[C@H](O)CNC(=O)c1ccc(CN(C2CCCCC2F)S(=O)(=O)c2ccc(Cl)cc2)cc1 (stereo partly drawn) [Example 73, 4-((4-Chloro-N-(2-fluorocyclohexyl)phenylsulfonamido)methyl)-N—((S)-2-hydroxypropyl)benzamide] |
|  |  |  | inhibition at 1 µM ([1]; read-out: Aβ42 % Inh): 0% | COC(=O)c1ccc(CN(C2CCOCC2)S(=O)(=O)c2ccc(Cl)cc2)cc1 [Example 12, Methyl 4-((4-chloro-N-(tetrahydro-2H-pyran-4-yl)phenylsulfonamido)methyl)-benzoate] |
|  |  |  | inhibition at 1 µM ([1]; read-out: Aβ42 % Inh): 0% | COC(=O)c1cc(CN(C2CCOCC2)S(=O)(=O)c2ccc(Cl)cc2)ccc1OC [Example 7, Methyl 5-((4-chloro-N-(tetrahydro-2H-pyran-4-yl)phenylsulfonamido)methyl)-2-methoxybenzoate] |
| 8.14 |  |  |  | COC[C@@H](C)NC(=O)c1ccc(CN(C2CCCCC2F)S(=O)(=O)c2ccc(Cl)cc2)cc1 (stereo partly drawn) [Example 88, 4-((4-Chloro-N-(2-fluorocyclohexyl)phenylsulfonamido)methyl)-N-((R)-1-methoxypropan-2-yl)benzamide] |
| 7.45 |  |  |  | C[C@@H](CO)NC(=O)c1ccc(CN(C2CCCCC2F)S(=O)(=O)c2ccc(Cl)cc2)cc1 (stereo partly drawn) [Example 89, 4-((4-Chloro-N-(2-fluorocyclohexyl)phenylsulfonamido)methyl)-N—((S)-1-hydroxypropan-2-yl)benzamide] |
| 7.48 and 7.15 | 5.38 | 80 |  | CN(C)CCNC(=O)c1ccc(CN(C2CCCCC2F)S(=O)(=O)c2ccc(Cl)cc2)cc1.Cl (centres unmarked) [Example 75, 4-((4-Chloro-N-(2-fluorocyclohexyl)phenylsulfonamido)methyl)-N-(2-(dimethylamino)ethyl)benzamide hydrochloride] |
| 8.66 | 7.03 | 44 |  | C[C@@H](CO)NC(=O)c1ccc(CN(C2CCCCC2C(F)(F)F)S(=O)(=O)c2ccc(Cl)cc2)cc1 (stereo partly drawn) [Example 69, 4-((4-Chloro-N-(2-(trifluoromethyl)cyclohexyl)phenylsulfonamido)methyl)-N—((S)-1-hydroxypropan-2-yl)benzamide] |
| 7.59 | 6.08 | 33 |  | O=C(O)c1ccc(CN(C2CCCCC2C(F)(F)F)S(=O)(=O)c2ccc(Cl)cc2)cc1 (centres unmarked) [Example 68, 4-((4-Chloro-N-(2-(trifluoromethyl)cyclohexyl)phenylsulfonamido)methyl)benzoic acid] |
| 8.16 |  |  |  | O=C(NCCN1CCCC1)c1ccc(CN(C2CCCCC2F)S(=O)(=O)c2ccc(Cl)cc2)cc1 (centres unmarked) [Example 87, 4-((4-Chloro-N-(2-fluorocyclohexyl)phenylsulfonamido)methyl)-N-(2-(pyrrolidin-1-yl)ethyl)benzamide] |
| 7.98 |  |  |  | COC(=O)c1ccc(CN(C2CCCCC2F)S(=O)(=O)c2ccc(Cl)nc2)cc1 (centres unmarked) [Example 61, Methyl 4-((6-chloro-N-(2-fluorocyclohexyl)pyridine-3-sulfonamido)methyl)benzoate] |
| 8.08 and 7.89 | 6.18 | 64 |  | CC1CCCCC1N(Cc1ccc(C(=O)NCCN2CCCC2)cc1)S(=O)(=O)c1ccc(Cl)cc1 (centres unmarked) [Example 38, 4-((4-Chloro-N-(2-methylcyclohexyl)phenylsulfonamido)methyl)-N-(2-(pyrrolidin-1-yl)ethyl)benzamide] |
| 6.83 | 5.55 and 5.56 | 19 |  | CC1CCCC(N(Cc2ccc(C(=O)O)cc2)S(=O)(=O)c2ccc(Cl)cc2)C1 (centres unmarked) [Example 43, 4-((4-Chloro-N-(3-methylcyclohexyl)phenylsulfonamido)methyl)benzoic acid] |
| 7.99 | 5.86 | 134 |  | O=C(NCCO)c1ccc(CN(C2CCCCC2F)S(=O)(=O)c2ccc(Cl)cc2)cc1 (centres unmarked) [Example 66, 4-((4-Chloro-N-(2-fluorocyclohexyl)phenylsulfonamido)methyl)-N-(2-hydroxyethyl)benzamide] |
| 8.19 and 7.70 | 5.53 and 5.56 | 220 |  | CC1CCCCC1N(Cc1ccc(C(=O)O)cc1)S(=O)(=O)c1ccc(Cl)nc1 (centres unmarked) [Example 44, 4-((6-Chloro-N-(2-methylcyclohexyl)pyridine-3-sulfonamido)methyl)benzoic acid] |
| 5.44 |  |  |  | O=C(O)CNC(=O)c1ccc(CN(C2CCCCC2F)S(=O)(=O)c2ccc(Cl)cc2)cc1 (centres unmarked) [Example 79, 2-(4-((4-Chloro-N-(2-fluorocyclohexyl)phenylsulfonamido)methyl)benzamido)acetic acid] |
|  |  |  | inhibition at 1 µM ([1]; read-out: Aβ42 % Inh): 87% | O=C(O)c1ccc(CN(C2CCCC(C(F)(F)F)C2)S(=O)(=O)c2ccc(Cl)nc2)cc1 (centres unmarked) [Example 63, 4-((6-Chloro-N-(3-(trifluoromethyl)cyclohexyl)pyridine-3-sulfonamido)methyl)benzoic acid] |
| 7.88 | 5.93 | 89 |  | COCC(C)NC(=O)c1ccc(CN(C2CCCCC2F)S(=O)(=O)c2ccc(Cl)cc2)cc1 (centres unmarked) [Example 85, 4-((4-Chloro-N-(2-fluorocyclohexyl)phenylsulfonamido)methyl)-N-(1-methoxypropan-2-yl)benzamide] |
|  |  |  | inhibition at 30 µM ([1]; at 30 μM (concentration in brackets), read-out: Aβ42 % Inh): 0% | O=C(O)c1ccc(CN(C2CCC(F)CC2)S(=O)(=O)c2ccc(Cl)cc2)cc1 (centres unmarked) [Example 82, 4-((4-Chloro-N-(4-fluorocyclohexyl)phenylsulfonamido)methyl)benzoic acid] |
| 7.32 | 5.73 |  | Notch Elisa/Aβ42 ([2]; listed as 52/1227C): 40 | O=C(O)c1ccc(CN(C2CCCC(C(F)(F)F)C2)S(=O)(=O)c2ccc(Cl)cc2)cc1 (single isomer, unassigned) [Example 52, 4-((4-Chloro-N-(3-(trifluoromethyl)cyclohexyl)phenylsulfonamido)methyl)benzoic acid] |
| 7.53 |  |  |  | Methyl 3-(4-((4-chloro-N-(2-methylcyclohexyl)phenylsulfonamido)methyl)benzamido)propanoate [Example 35] |
| 8.24 and 7.96 | 6.17 and 6.07 | 91 |  | CC1CCCCC1N(Cc1ccc(C(=O)NCCN(C)C)cc1)S(=O)(=O)c1ccc(Cl)cc1 (centres unmarked) [Example 41, 4-((4-Chloro-N-(2-methylcyclohexyl)phenylsulfonamido)methyl)-N-(2-(dimethylamino)ethyl)benzamide hydrochloride] |
|  |  |  | inhibition at 1 µM ([1]; read-out: Aβ42 % Inh): 65% | CN(C)CCNC(=O)c1ccc(CN(C2CCCCC2F)S(=O)(=O)c2ccc(Cl)nc2)cc1 (centres unmarked) [Example 80, 4-((6-Chloro-N-(2-fluorocyclohexyl)pyridine-3-sulfonamido)methyl)-N-(2-(dimethylamino)ethyl)benzamide hydrochloride] |
| 8.02 |  |  |  | COC(=O)c1ccc(CN(C2CCCC(C)C2)S(=O)(=O)c2ccc(Cl)cc2)cc1 (centres unmarked) [Example 42, Methyl 4-((4-chloro-N-(3-methylcyclohexyl)phenylsulfonamido)methyl)benzoate] |
| 8.39 |  |  |  | COC(=O)c1ccc(CN(C2CCCCC2F)S(=O)(=O)c2ccc(Cl)cc2)cc1 (centres unmarked) [Example 56, Methyl 4-((4-chloro-N-(2-fluorocyclohexyl)phenylsulfonamido)methyl)benzoate] |
| 7.57 |  |  |  | COC(=O)c1ccc(CN(C2CCCC(C(F)(F)F)C2)S(=O)(=O)c2ccc(Cl)nc2)cc1 (centres unmarked) [Example 70, Methyl 4-((6-chloro-N-(3-(trifluoromethyl)cyclohexyl)pyridine-3-sulfonamido)methyl)benzoate] |
| 6.99 |  |  |  | COC[C@H](C)NC(=O)c1ccc(CN(C2CCCCC2F)S(=O)(=O)c2ccc(Cl)cc2)cc1 (stereo partly drawn) [Example 86, 4-((4-Chloro-N-(2-fluorocyclohexyl)phenylsulfonamido)methyl)-N—((S)-1-methoxypropan-2-yl)benzamide] |
